Reference: patent US20220144815A1, “1,3,4-OXADIAZOLES AND THEIR DERIVATIVES AS NEW ANTIFUNGAL AGENTS” (Bayer Aktiengesellschaft, priority 2018, published 2022)

Assay: Log P by HPLC on reversed phase columns, method [a] (EEC directive 79/831 Annex V.A8)
Type: physicochemical
Details: not given
Description: Measurement of Log P values as provided herein was performed according to EEC directive 79/831 Annex V.A8 by HPLC (High Performance Liquid Chromatography) on reversed phase columns with the following methods: • ^[a] Log P value is determined by measurement of LC-UV, in an acidic range, with 0.1% formic acid in water and acetonitrile as eluent (linear gradient from 10% acetonitrile to 95% acetonitrile). • ^[b] Log P value is determined by measurement of LC-UV, in a neutral range, with 0.001 molar ammonium acetate solution in water and acetonitrile as eluent (linear gradient from 10% acetonitrile to 95% acetonitrile). • ^[c] Log P value is determined by measurement of LC-UV, in an acidic range, with 0.1% phosphoric acid and acetonitrile as eluent (linear gradient from 10% acetonitrile to 95% acetonitrile). If more than one Log P value is available within the same method, all the values are given and separated by “+”. Calibration was done with straight-chain alkan2-ones (with 3 to 16 carbon atoms) with known Log P values (measurement of Log P values using retention times with linear interpolation between successive alkanones). Lambda-max-values were determined using UV-spectra from 200 nm to 400 nm and the peak values of the chromatographic signals In table 1, the log P values were determined according to method [^a]. In table 2, the log P values were determined according to method [^a].

Compound | chromatographic logP
CC(Nc1ncc(-c2nnc(C(F)F)o2)cn1)c1ccc(Cl)nc1 (racemic) [I.214, N-[(1RS)-1-(6-chloropyridin-3-yl)ethyl]-5-[5-(difluoromethyl)-1,3,4-oxadiazol-2-yl]pyrimidin-2-amine] | 2.27

Same assay, conditions: log P determined according to method [a] (HPLC on reversed phase columns)

logP | Compound
1.66 | O=C(O)c1ccc(-c2nnc(C(F)F)o2)cc1 [Example I-001]
2.75 | CSc1ccc(-c2nnc(C(F)F)o2)cc1 [Example I-002]
2.35 | COC(=O)c1ccc(-c2nnc(C(F)F)o2)cc1 [Example I-003]
2.20 | O=C(O)c1ccc(-c2nnc(C(F)(F)F)o2)cc1 [Example I-004]
1.73 | FC(F)c1nnc(-c2ccc(-n3ccnn3)cc2)o1 [Example I-005]
2.97 | COC(=O)c1ccc(-c2nnc(C(F)(F)F)o2)cc1 [Example I-006]
3.57 | FC(F)c1nnc(-c2ccc(-c3ccccc3)cc2)o1 [Example I-007]
2.41 | O=C(O)c1ccc(-c2nnc(C(F)(F)F)s2)cc1 [Example I-008]

Same assay, conditions: reversed phase HPLC column; Method A: LC-UV, acidic range, 0.1% formic acid in water and acetonitrile; read-out: Log P

chromatographic logP | Compound
1.63 | NNC(=O)c1cnc(NC2(c3ccccc3)CCC2)nc1 [2-[(1-phenylcyclobutyl)amino]pyrimidine-5-carbohydrazide]

Same assay, conditions: reversed phase HPLC column; log P determined according to method [a] (HPLC on reversed phase columns); read-out: logP

chromatographic logP | Compound
2.89 | CC(Nc1ncc(-c2nnc(C(F)F)o2)cn1)c1ccccc1F (racemic) [I.124, 5-[5-(difluoromethyl)-1,3,4-oxadiazol-2-yl]-N-[(1RS)-1-(2-fluorophenyl)ethyl]pyrimidin-2-amine]
3.54 | CCCC(Nc1ncc(-c2nnc(C(F)F)o2)cn1)c1ccccc1 (racemic) [I.140, 5-[5-(difluoromethyl)-1,3,4-oxadiazol-2-yl]-N-[(1RS)-1-phenylbutyl]pyrimidin-2-amine]
3.1 | CC(Nc1ncc(-c2nnc(C(F)F)o2)cn1)c1c(F)cccc1F (racemic) [I.151, 5-[5-(difluoromethyl)-1,3,4-oxadiazol-2-yl]-N-[(1RS)-1-(2,6-difluorophenyl)ethyl]pyrimidin-2-amine]

Same assay, conditions: reversed phase HPLC column; method [a], HPLC on reversed phase columns; read-out: logP

chromatographic logP | Compound
3.94 | CON(c1ncc(-c2nnc(C(F)F)o2)cn1)C(C)c1cccc(C(F)(F)F)c1 (racemic) [I.184, N-{5-[5-(difluoromethyl)-1,3,4-oxadiazol-2-yl]pyrimidin-2-yl}-O-methyl-N-{(1RS)-1-[3-(trifluoromethyl)phenyl]ethyl}hydroxylamine]
2.91 | CC(Nc1ncc(-c2nnc(C(F)F)o2)cn1)C1(C)CC1 (racemic) [I.186, 5-[5-(difluoromethyl)-1,3,4-oxadiazol-2-yl]-N-[(1RS)-1-(1-methylcyclopropyl)ethyl]pyrimidin-2-amine]
0.74 | CC(Nc1ncc(-c2nnc(C(F)F)o2)cn1)c1cccnc1 (racemic) [I.188, 5-[5-(difluoromethyl)-1,3,4-oxadiazol-2-yl]-N-[(1RS)-1-(pyridin-3-yl)ethyl]pyrimidin-2-amine]
1 | CC(Nc1ncc(-c2nnc(C(F)F)o2)cn1)c1ccccn1 (racemic) [I.189, 5-[5-(difluoromethyl)-1,3,4-oxadiazol-2-yl]-N-[(1RS)-1-(pyridin-2-yl)ethyl]pyrimidin-2-amine]
0.65 | CC(Nc1ncc(-c2nnc(C(F)F)o2)cn1)c1ccncc1 (racemic) [I.190, 5-[5-(difluoromethyl)-1,3,4-oxadiazol-2-yl]-N-[(1RS)-1-(pyridin-4-yl)ethyl]pyrimidin-2-amine]
1.49 | CC(Nc1ncc(-c2nnc(C(F)F)o2)cn1)c1ncccn1 (racemic) [I.191, 5-[5-(difluoromethyl)-1,3,4-oxadiazol-2-yl]-N-[(1RS)-1-(pyrimidin-2-yl)ethyl]pyrimidin-2-amine]
2.7 | CC(Nc1ncc(-c2nnc(C(F)F)o2)cn1)c1cccs1 (racemic) [I.192, 5-[5-(difluoromethyl)-1,3,4-oxadiazol-2-yl]-N-[(1RS)-1-(2-thienyl)ethyl]pyrimidin-2-amine]
3.74 | CC(Nc1ncc(-c2nnc(C(F)F)o2)cn1)C1CCCCC1 (racemic) [I.193, N-[(1RS)-1-cyclohexylethyl]-5-[5-(difluoromethyl)-1,3,4-oxadiazol-2-yl]pyrimidin-2-amine]
1.8 | CC(Nc1ncc(-c2nnc(C(F)F)o2)cn1)c1cscn1 (racemic) [I.194, 5-[5-(difluoromethyl)-1,3,4-oxadiazol-2-yl]-N-[(1RS)-1-(1,3-thiazol-4-yl)ethyl]pyrimidin-2-amine]
2.97 | Fc1ccc([C@H]2C[C@H]2Nc2ncc(-c3nnc(C(F)F)o3)cn2)cc1 (racemic) [I.206, 5-[5-(difluoromethyl)-1,3,4-oxadiazol-2-yl]-N-[rac-(1R,2R)-2-(4-fluorophenyl)cyclopropyl]pyrimidin-2-amine]
2.75 | COc1ccc(C(C)Nc2ncc(-c3nnc(C(F)F)o3)cn2)cc1 (racemic) [I.207, 5-[5-(difluoromethyl)-1,3,4-oxadiazol-2-yl]-N-[(1RS)-1-(4-methoxyphenyl)ethyl]pyrimidin-2-amine]
2.95 | COc1ccccc1C(C)Nc1ncc(-c2nnc(C(F)F)o2)cn1 (racemic) [I.209, 5-[5-(difluoromethyl)-1,3,4-oxadiazol-2-yl]-N-[(1RS)-1-(2-methoxyphenyl)ethyl]pyrimidin-2-amine]
3.12 | CC(Cc1ccc(F)cc1)Nc1ncc(-c2nnc(C(F)F)o2)cn1 (racemic) [I.210, 5-[5-(difluoromethyl)-1,3,4-oxadiazol-2-yl]-N-[(2RS)-1-(4-fluorophenyl)propan-2-yl]pyrimidin-2-amine]
3.13 | CC(CNc1ncc(-c2nnc(C(F)F)o2)cn1)c1ccc(F)cc1 (racemic) [I.211, 5-[5-(difluoromethyl)-1,3,4-oxadiazol-2-yl]-N-[(2RS)-2-(4-fluorophenyl)propyl]pyrimidin-2-amine]
3.2 | CC(Nc1ncc(-c2nnc(C(F)F)o2)cn1)c1cccc(Cl)c1 (racemic) [I.213, N-[(1RS)-1-(3-chlorophenyl)ethyl]-5-[5-(difluoromethyl)-1,3,4-oxadiazol-2-yl]pyrimidin-2-amine]
3.01 | CC(Nc1ncc(-c2nnc(C(F)F)o2)cn1)c1ccc(F)cc1F (racemic) [I.215, 5-[5-(difluoromethyl)-1,3,4-oxadiazol-2-yl]-N-[(1RS)-1-(2,4-difluorophenyl)ethyl]pyrimidin-2-amine]
3.44 | FC(F)c1nnc(-c2cnc(NC3CCCC3c3ccccc3)nc2)o1 (racemic) [I.217, 5-[5-(difluoromethyl)-1,3,4-oxadiazol-2-yl]-N-[(1RS)-2-phenylcyclopentyl]pyrimidin-2-amine]
3.58 | CCC(Nc1ncc(-c2nnc(C(F)F)o2)cn1)c1ccc(Cl)cc1 (racemic) [I.230, N-[(1RS)-1-(4-chlorophenyl)propyl]-5-[5-(difluoromethyl)-1,3,4-oxadiazol-2-yl]pyrimidin-2-amine]
3.45 | CC(Nc1ncc(-c2nnc(C(F)F)o2)cn1)c1ccc2ccccc2c1 (racemic) [I.232, 5-[5-(difluoromethyl)-1,3,4-oxadiazol-2-yl]-N-[(1RS)-1-(2-naphthyl)ethyl]pyrimidin-2-amine]
2.04 | CC(Nc1ncc(-c2nnc(C(F)F)o2)cn1)c1ccc2ccccc2n1 (racemic) [I.233, 5-[5-(difluoromethyl)-1,3,4-oxadiazol-2-yl]-N-[(1RS)-1-(quinolin-2-yl)ethyl]pyrimidin-2-amine]
2.68 | Cc1ccc(C(C)(CO)Nc2ncc(-c3nnc(C(F)F)o3)cn2)cc1C (racemic) [I.235, (2RS)-2-({5-[5-(difluoromethyl)-1,3,4-oxadiazol-2-yl]pyrimidin-2-yl}amino)-2-(3,4-dimethylphenyl)propan-1-ol]
3.37 | CC(Nc1ncc(-c2nnc(C(F)F)o2)cn1)c1cccc(C(F)(F)F)c1 (racemic) [I.239, 5-[5-(difluoromethyl)-1,3,4-oxadiazol-2-yl]-N-{(1RS)-1-[3-(trifluoromethyl)phenyl]ethyl}pyrimidin-2-amine]
3.42 | CC(Nc1ncc(-c2nnc(C(F)F)o2)cn1)c1ccccc1C(F)(F)F (racemic) [I.240, 5-[5-(difluoromethyl)-1,3,4-oxadiazol-2-yl]-N-{(1RS)-1-[2-(trifluoromethyl)phenyl]ethyl}pyrimidin-2-amine]
3.68 | FC(F)c1nnc(-c2cnc(NC(Cc3ccccc3)c3ccccc3)nc2)o1 (racemic) [I.245, 5-[5-(difluoromethyl)-1,3,4-oxadiazol-2-yl]-N-[(1RS)-1,2-diphenylethyl]pyrimidin-2-amine]
3.53 | CC(Nc1ncc(-c2nnc(C(F)F)o2)cn1)c1cccc(OC(F)(F)F)c1 (racemic) [I.257, 5-[5-(difluoromethyl)-1,3,4-oxadiazol-2-yl]-N-{(1RS)-1-[3-(trifluoromethoxy)phenyl]ethyl}pyrimidin-2-amine]
3.64 | CCC(Nc1ncc(-c2nnc(C(F)F)o2)cn1)c1ccccc1Br (racemic) [I.260, N-[(1RS)-1-(2-bromophenyl)propyl]-5-[5-(difluoromethyl)-1,3,4-oxadiazol-2-yl]pyrimidin-2-amine]
